# Experimental data as given in patent US9247759B2, “Identification of human T2R receptors that respond to bitter compounds that elicit the bitter taste in compositions, and the use thereof in assays to identify compounds that inhibit (block) bitter taste in compositions and use thereof” (SENOMYX, INC., priority 2007, dated 2016).
# Read-outs that look alike come from different tables or passages of the source.
# Assays:
# hT2R64 = hT2R64 (Homo sapiens (Human), UniProt P59538); experiment: hT2R panel inhibition, transient HEK293 G16g44, agonist Aristolochic Acid 1 μM; format: cell-based; settings: HEK293, compound at 25 μM
# hT2R64, sequence (P59538 whole entry): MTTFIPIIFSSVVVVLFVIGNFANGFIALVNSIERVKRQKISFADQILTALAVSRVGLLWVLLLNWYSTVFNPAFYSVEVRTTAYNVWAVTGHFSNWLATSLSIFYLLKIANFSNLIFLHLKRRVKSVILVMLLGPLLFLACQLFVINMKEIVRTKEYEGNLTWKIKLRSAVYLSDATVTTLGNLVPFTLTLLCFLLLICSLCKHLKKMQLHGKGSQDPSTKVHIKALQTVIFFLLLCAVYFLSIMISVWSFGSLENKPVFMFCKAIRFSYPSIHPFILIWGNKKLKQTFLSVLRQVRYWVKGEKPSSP
# Procedure, shortened: (§1)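 Each human T2R transiently transfected into HEK293 cells stably expressing G16g44; functional receptor assays run with the listed bitter agonist at EC80 concentration. Inhibition recorded as reduction of agonist-induced receptor activity in presence of Compound C.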
# hT2R61 = hT2R61 (Homo sapiens (Human), UniProt P59537); experiment: hT2R panel inhibition, transient HEK293 G16g44, agonist Aristolochic Acid 25 nM; format: cell-based; settings: HEK293, compound at 25 μM
# hT2R61, sequence (P59537 whole entry): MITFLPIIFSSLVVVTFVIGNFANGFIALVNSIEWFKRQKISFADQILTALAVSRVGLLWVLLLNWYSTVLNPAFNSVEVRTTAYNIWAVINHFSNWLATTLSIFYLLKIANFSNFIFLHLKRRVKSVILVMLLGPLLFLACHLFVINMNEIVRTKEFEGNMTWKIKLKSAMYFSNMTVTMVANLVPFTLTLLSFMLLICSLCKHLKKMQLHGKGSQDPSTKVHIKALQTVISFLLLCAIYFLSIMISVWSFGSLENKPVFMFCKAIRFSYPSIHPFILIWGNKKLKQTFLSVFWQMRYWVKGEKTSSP
# Procedure, shortened: as §1
# hT2R44 = experiment: hT2R panel inhibition, transient HEK293 G16g44, agonist Denatonium 0.5 μM; format: cell-based, human; settings: compound at 25 μM; for screening result against bitter receptor 44: receptor activated to EC80 with the corresponding agonist
# Procedure, shortened: as §1
# hT2R5 = hT2R5 (Homo sapiens (Human), UniProt Q9NYW4); experiment: hT2R panel inhibition, transient HEK293 G16g44, agonist Picoline 10 mM; format: cell-based; settings: HEK293, compound at 25 μM
# hT2R5, sequence (Q9NYW4 whole entry): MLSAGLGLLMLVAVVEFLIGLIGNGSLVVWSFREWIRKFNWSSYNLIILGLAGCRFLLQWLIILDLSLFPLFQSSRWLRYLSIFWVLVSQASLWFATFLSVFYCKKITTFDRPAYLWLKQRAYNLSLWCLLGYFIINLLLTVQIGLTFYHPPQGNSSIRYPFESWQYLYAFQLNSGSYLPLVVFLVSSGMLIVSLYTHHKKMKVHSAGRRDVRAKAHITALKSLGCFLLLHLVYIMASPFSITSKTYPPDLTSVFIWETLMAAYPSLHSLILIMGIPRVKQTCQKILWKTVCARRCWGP
# Procedure, shortened: as §1
# hT2R3 = hT2R3 (Homo sapiens (Human), UniProt Q9NYW6); experiment: hT2R panel inhibition, transient HEK293 G16g44, agonist Chloroquine pH6.5 50 μM; format: cell-based; settings: HEK293, compound at 25 μM
# hT2R3, sequence (Q9NYW6 whole entry): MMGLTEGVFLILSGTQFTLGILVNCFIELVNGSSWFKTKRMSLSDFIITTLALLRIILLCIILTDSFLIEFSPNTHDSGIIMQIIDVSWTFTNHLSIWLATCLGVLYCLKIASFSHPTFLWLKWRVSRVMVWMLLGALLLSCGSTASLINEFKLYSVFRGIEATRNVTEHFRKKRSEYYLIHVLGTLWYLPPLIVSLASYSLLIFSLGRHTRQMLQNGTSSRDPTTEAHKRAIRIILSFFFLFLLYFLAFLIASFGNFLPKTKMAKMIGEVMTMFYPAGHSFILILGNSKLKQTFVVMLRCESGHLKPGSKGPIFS
# Procedure, shortened: as §1
# hT2R14 [1] = target: T1, hT2R14 (Homo sapiens (Human), UniProt Q9NYV8); experiment: hT2R panel inhibition, transient HEK293 G16g44, agonist Aristolochic Acid 2 μM; format: cell-based; settings: HEK293, compound at 25 μM
# T1 sequence (Q9NYV8 whole entry): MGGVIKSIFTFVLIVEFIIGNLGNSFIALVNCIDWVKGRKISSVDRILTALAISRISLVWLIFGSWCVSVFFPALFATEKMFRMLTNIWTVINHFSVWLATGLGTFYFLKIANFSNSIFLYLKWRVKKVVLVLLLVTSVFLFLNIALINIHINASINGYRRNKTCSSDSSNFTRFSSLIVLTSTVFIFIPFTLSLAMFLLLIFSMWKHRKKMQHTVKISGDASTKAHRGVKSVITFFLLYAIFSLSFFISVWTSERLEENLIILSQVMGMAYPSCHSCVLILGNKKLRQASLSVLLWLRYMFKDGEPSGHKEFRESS
# Procedure, shortened: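 Each hT2R was transiently transfected into HEK293 cells stably expressing G16g44 and assayed functionally for inhibition of agonist response. Agonists were applied at EC80: andrographolide at 0.5 mM for hT2R8 and aristolochic acid at 2 μM for hT2R14.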
# hT2R7 = hT2R7 (Homo sapiens (Human), UniProt Q9NYW3); experiment: hT2R panel inhibition, transient HEK293 G16g44, agonist Chloroquine pH6.5 10 mM; format: cell-based; settings: HEK293, compound at 25 μM
# hT2R7, sequence (Q9NYW3 whole entry): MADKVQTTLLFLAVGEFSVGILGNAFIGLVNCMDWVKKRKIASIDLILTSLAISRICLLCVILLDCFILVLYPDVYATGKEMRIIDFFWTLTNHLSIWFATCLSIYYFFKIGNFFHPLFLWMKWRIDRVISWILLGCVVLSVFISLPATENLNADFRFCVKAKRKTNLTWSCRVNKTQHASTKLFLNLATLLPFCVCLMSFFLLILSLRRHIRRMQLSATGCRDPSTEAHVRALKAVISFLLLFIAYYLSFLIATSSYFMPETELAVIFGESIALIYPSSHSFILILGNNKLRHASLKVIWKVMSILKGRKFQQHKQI
# Procedure, shortened: as §1
# hT2R14 [2] = target: T1, hT2R14; experiment: hT2R14 antagonist high-throughput FLIPR assay, stable cell line with G16g44, agonist aristolochic acid; format: cell-based
# Procedure, shortened: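 HEK293 cells stably expressing hT2R14 with chimeric G16g44 were stimulated with aristolochic acid (3 μM), giving 70-80% of maximal receptor activity. Test compounds were added together with the agonist, and antagonism was read as fluorescent calcium signal on FLIPR.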
# hT2R13 = hT2R13 (Homo sapiens (Human), UniProt Q9NYV9); experiment: hT2R panel inhibition, transient HEK293 G16g44, agonist Oxyphenonium 1 mM; format: cell-based; settings: HEK293, compound at 25 μM
# hT2R13, sequence (Q9NYV9 whole entry): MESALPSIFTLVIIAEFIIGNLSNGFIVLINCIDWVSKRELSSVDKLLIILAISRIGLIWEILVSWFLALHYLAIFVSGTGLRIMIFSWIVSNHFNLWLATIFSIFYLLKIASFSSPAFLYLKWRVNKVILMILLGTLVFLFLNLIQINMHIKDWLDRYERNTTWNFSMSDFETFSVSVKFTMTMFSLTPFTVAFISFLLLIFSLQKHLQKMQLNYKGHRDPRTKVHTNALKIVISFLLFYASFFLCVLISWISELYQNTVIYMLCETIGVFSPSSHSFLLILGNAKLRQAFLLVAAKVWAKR
# Protocol: Specifically, in order to evaluate the inhibitory selectivity of the Compound C compound, this compound was tested against 22 human T2Rs which were deorphaned by Senomyx. These receptors and the bitter ligands that activate these human T2Rs are reported in earlier patent applications which are incorporated by reference herein. These 22 human T2Rs are hT2R1, 3, 4, 5, 7, 8, 9, 10, 13, 14, 16, 44, 51, 54, 55, 61, 63, 64, 65, 67, 71 and 75. The amino acid and nucleic acid sequences of all of these T2Rs may be found in these earlier patent applications. These human T2Rs were each individually transiently transfected into HEK293 cells that stably express the promiscuous G protein G16g44 and functional assays were effected using these receptors as disclosed in these same patent applications. […] The ligands were used at EC80 concentration levels. The list of bitter ligands utilized and the tested ligand concentrations are contained in Table 5 of this example.
# Relating to the foregoing, FIG. 5 contains experimental results wherein Compound C was tested with different agonist compounds. The inhibition activity is represented by the reduction of receptor activity in the presence of Compound C. […] These 13 hT2Rs are hT2R3, 7, 10, 14, 16, 44, 51, 55, 61, 63, 64, 65, and 71.
# hT2R67 = experiment: hT2R panel inhibition, transient HEK293 G16g44, agonist Andrographolide 5 μM; format: cell-based, human; settings: compound at 25 μM; receptor activated to EC80 with the corresponding agonist
# Procedure, shortened: as §1
# hT2R71 = hT2R71 (Homo sapiens (Human), UniProt P59536); experiment: hT2R panel inhibition, transient HEK293 G16g44, agonist Picric Acid 10 μM; format: cell-based; settings: HEK293, compound at 25 μM
# hT2R71, sequence (P59536 whole entry): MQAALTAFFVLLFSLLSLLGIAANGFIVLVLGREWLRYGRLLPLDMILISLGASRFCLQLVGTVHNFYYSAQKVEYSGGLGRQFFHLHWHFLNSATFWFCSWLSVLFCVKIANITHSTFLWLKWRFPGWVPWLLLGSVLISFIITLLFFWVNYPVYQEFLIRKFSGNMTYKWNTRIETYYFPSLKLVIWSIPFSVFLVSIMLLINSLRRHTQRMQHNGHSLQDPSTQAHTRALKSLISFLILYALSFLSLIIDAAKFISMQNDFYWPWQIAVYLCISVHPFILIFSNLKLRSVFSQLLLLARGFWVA
# Procedure, shortened: as §1
# hT2R10 = hT2R10 (Homo sapiens (Human), UniProt Q9NYW0); experiment: hT2R panel inhibition, transient HEK293 G16g44, agonist Strychnine 50 μM; format: cell-based; settings: HEK293, read-out: screening result against bitter receptor 10, compound at 25 μM; receptor activated to EC80 with the corresponding agonist
# hT2R10, sequence (Q9NYW0 whole entry): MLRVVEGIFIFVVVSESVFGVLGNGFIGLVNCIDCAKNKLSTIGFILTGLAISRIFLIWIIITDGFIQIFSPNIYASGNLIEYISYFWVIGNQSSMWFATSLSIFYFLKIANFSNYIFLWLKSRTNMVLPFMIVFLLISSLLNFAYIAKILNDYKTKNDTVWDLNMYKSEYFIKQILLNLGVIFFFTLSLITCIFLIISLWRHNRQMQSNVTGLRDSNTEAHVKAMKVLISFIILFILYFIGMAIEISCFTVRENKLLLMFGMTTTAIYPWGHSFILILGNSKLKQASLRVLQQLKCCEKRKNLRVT
# hT2R54 = experiment: hT2R panel inhibition, transient HEK293 G16g44, agonist Ranitidine 5 mM; format: cell-based, human; settings: compound at 25 μM; receptor activated to EC80 with the corresponding agonist
# Procedure, shortened: as §1
# hT2R16 = hT2R16 (Homo sapiens (Human), UniProt Q9NYV7); experiment: hT2R panel inhibition, transient HEK293 G16g44, agonist Salicin 1 mM; format: cell-based; settings: HEK293, compound at 25 μM; receptor activated to EC80 with the corresponding agonist; read-out: screening result against bitter receptor 16
# hT2R16, sequence (Q9NYV7 whole entry): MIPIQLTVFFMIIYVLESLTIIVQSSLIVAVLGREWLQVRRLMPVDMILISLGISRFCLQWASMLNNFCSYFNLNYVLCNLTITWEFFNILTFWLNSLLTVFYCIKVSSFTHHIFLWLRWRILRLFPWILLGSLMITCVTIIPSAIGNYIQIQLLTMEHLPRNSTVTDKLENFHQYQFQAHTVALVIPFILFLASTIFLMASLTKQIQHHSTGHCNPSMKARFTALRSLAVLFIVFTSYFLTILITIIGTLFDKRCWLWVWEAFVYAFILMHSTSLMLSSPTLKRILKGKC
# Procedure, shortened: as §1
# hT2R51 = hT2R51 (Homo sapiens (Human), UniProt P59533); experiment: hT2R panel inhibition, transient HEK293 G16g44, agonist Prop 2.5 μM; format: cell-based; settings: HEK293, compound at 25 μM; receptor activated to EC80 with the corresponding agonist; read-out: screening result against bitter receptor 51
# hT2R51, sequence (P59533 whole entry): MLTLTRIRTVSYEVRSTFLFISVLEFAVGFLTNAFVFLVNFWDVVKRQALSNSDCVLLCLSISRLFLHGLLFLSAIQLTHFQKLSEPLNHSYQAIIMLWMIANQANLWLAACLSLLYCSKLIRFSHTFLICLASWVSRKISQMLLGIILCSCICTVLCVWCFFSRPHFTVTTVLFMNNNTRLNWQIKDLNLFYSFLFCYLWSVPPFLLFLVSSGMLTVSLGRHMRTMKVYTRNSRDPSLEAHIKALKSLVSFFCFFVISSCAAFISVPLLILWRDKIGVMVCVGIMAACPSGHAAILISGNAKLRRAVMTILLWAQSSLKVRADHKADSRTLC
# Procedure, shortened: as §1
# hT2R55 = experiment: hT2R panel inhibition, transient HEK293 G16g44, agonist Cinchonine 150 μM; format: cell-based, human; settings: compound at 25 μM; receptor activated to EC80 with the corresponding agonist
# Procedure, shortened: as §1
# hT2R63 = experiment: hT2R panel inhibition, transient HEK293 G16g44, agonist Caffeine 1 mM or Andrographolide 100 μM; format: cell-based, human; settings: compound at 25 μM; receptor activated to EC80 with the corresponding agonist
# Procedure, shortened: as §1
# hT2R75 = hT2R75 (Homo sapiens (Human), UniProt P59540); experiment: hT2R panel inhibition, transient HEK293 G16g44, agonist Strychnine 1 μM; format: cell-based; settings: HEK293, read-out: screening result against bitter receptor 75, compound at 25 μM; receptor activated to EC80 with the corresponding agonist
# hT2R75, sequence (P59540 whole entry): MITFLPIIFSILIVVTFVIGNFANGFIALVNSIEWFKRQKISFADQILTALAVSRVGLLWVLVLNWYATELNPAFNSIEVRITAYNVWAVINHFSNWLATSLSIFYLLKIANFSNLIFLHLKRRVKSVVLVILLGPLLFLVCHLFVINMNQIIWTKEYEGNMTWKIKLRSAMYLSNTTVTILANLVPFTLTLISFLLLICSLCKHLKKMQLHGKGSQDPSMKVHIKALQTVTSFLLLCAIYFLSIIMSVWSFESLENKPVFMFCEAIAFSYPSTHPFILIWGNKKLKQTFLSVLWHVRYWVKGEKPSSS
# hT2R65 = experiment: hT2R panel inhibition, transient HEK293 G16g44, agonist Oleuropein 1 mM; format: cell-based, human; settings: compound at 25 μM; receptor activated to EC80 with the corresponding agonist
# Procedure, shortened: as §1
# [3] = receptor activated to EC80 with agonist, read-out: inhibition of bitter receptor 61
# [4] = receptor activated to EC80 with agonist, read-out: inhibition of bitter receptor 5
# [5] = receptor activated to EC80 with agonist, read-out: inhibition of bitter receptor 14
# [6] = receptor activated to EC80 with agonist, read-out: inhibition of bitter receptor 7
# [7] = receptor activated to EC80 with agonist, read-out: inhibition of bitter receptor 13
# [8] = receptor activated to EC80 with the corresponding agonist, read-out: screening result against bitter receptor 71
# [9] = receptor activated to EC80 with the corresponding agonist, read-out: screening result against bitter receptor 64
# [10] = receptor activated to EC80 with the corresponding agonist, read-out: screening result against bitter receptor 61
# [11] = receptor activated to EC80 with the corresponding agonist, read-out: screening result against bitter receptor 5
# [12] = receptor activated to EC80 with the corresponding agonist, read-out: screening result against bitter receptor 14
# [13] = receptor activated to EC80 with the corresponding agonist, read-out: screening result against bitter receptor 7
# [14] = receptor activated to EC80 with the corresponding agonist, read-out: screening result against bitter receptor 13
# [15] = receptor activated to EC80 with the corresponding agonist, read-out: screening result against bitter receptor 3
# [16] = read-out: IC50 on hT2R14 bitter receptor
SMILES,screening result against bitter receptor 67 (hT2R67),inhibition at 25 µM (hT2R71; [8]) [%],inhibition at 25 µM (hT2R64; [9]) [%],inhibition at 25 µM (hT2R61; [10]) [%],inhibition at 25 µM (hT2R10) [%],screening result against bitter receptor 54 (hT2R54),screening result against bitter receptor 44 (hT2R44),inhibition at 25 µM (hT2R16) [%],inhibition at 25 µM (hT2R5; [11]) [%],inhibition at 25 µM (hT2R51) [%],screening result against bitter receptor 55 (hT2R55),inhibition at 25 µM (hT2R14 [1]; [12]) [%],screening result against bitter receptor 63 (hT2R63),inhibition at 25 µM (hT2R7; [13]) [%],inhibition at 25 µM (hT2R13; [14]) [%],inhibition at 25 µM (hT2R3; [15]) [%],IC50 (hT2R14 [2]; [16]) [µM],other results
"Cc1cc2c(cc1S(=O)(=O)Nc1ccc(F)cc1)n(C)c(=O)c(=O)n2C [Example 6-10, N-(4-fluorophenyl)-1,4,7-trimethyl-2,3-dioxo-1,2,3,4-tetrahydroquinoxaline-6-sulfonamide]",–,–,–,–,–,–,–,–,–,–,–,–,–,–,–,–,–,"inhibition at 25 µM (hT2R64; receptor activated to EC80 with agonist, read-out: inhibition of bitter receptor 64): 20 to 40%; inhibition at 25 µM (hT2R61; [3]): 20 to 40%; inhibition of bitter receptor 44 (hT2R44; receptor activated to EC80 with agonist): + (20% to 40% inhibition = +); inhibition at 25 µM (hT2R5; [4]): 20 to 40%; inhibition at 25 µM (hT2R3; receptor activated to EC80 with agonist, read-out: inhibition of bitter receptor 3): 20 to 40%; inhibition at 25 µM (hT2R14 [1]; [5]): 40 to 60%; inhibition at 25 µM (hT2R7; [6]): 20 to 40%; IC50 (hT2R14 [2]; Table D, read-out: hT2R14 IC50): 12.6 µM; inhibition at 25 µM (hT2R13; [7]): 40 to 60%"
"O=C(O)c1ccc(S(=O)(=O)N(Cc2ccccc2)Cc2ccc3c(c2)OCO3)cc1 [Example 5-93, 4-(N-(benzo[d][1,3]dioxol-5-ylmethyl)-N-benzylsulfamoyl)benzoic acid]",++ (40% to 60% inhibition = ++),60 to 80,> 80,> 80,40 to 60,+++ (60% to 80% inhibition = +++),+++ (60% to 80% inhibition = +++),40 to 60,20 to 40,40 to 60,++++ (80% or greater inhibition = ++++),> 80,++++ (80% or greater inhibition = ++++),20 to 40,20 to 40,–,–,–
"COc1ccc(CN(Cc2ccc(OC)c(F)c2)S(=O)(=O)c2ccc(C(=O)O)cc2)cc1 [Example 5-41, 4-(N-(3-fluoro-4-methoxybenzyl)-N-(4-methoxybenzyl)sulfamoyl)-benzoic acid]",–,40 to 60,60 to 80,> 80,40 to 60,+ (20% to 40% inhibition = +),+++ (60% to 80% inhibition = +++),20 to 40,20 to 40,–,+++ (60% to 80% inhibition = +++),> 80,++++ (80% or greater inhibition = ++++),–,20 to 40,40 to 60,1.11,–
"CCN(C(=O)CN(C)S(=O)(=O)c1ccc2c(c1)n(C)c(=O)c(=O)n2C)c1cccc(C)c1 [Example 6-11, N-ethyl-N-m-tolyl-2-(N,1,4-trimethyl-2,3-dioxo-1,2,3,4-tetrahydroquinoxaline-6-sulfonamido)acetamide]",–,–,–,–,–,–,–,–,–,–,–,–,–,–,–,–,–,"inhibition at 25 µM (hT2R71; receptor activated to EC80 with agonist, read-out: inhibition of bitter receptor 71): 20 to 40%; inhibition at 25 µM (hT2R61; [3]): 20 to 40%; inhibition at 25 µM (hT2R5; [4]): 20 to 40%; inhibition at 25 µM (hT2R14 [1]; [5]): 20 to 40%; inhibition at 25 µM (hT2R7; [6]): 20 to 40%; IC50 (hT2R14 [2]; Table D, read-out: hT2R14 IC50): 14.9 µM; inhibition at 25 µM (hT2R13; [7]): 40 to 60%"
"O=C(O)c1ccc(S(=O)(=O)N(Cc2ccccc2)Cc2ccccc2)cc1 [Example 5-28, 4-(N,N-dibenzylsulfamoyl)benzoic acid]",+ (20% to 40% inhibition = +),40 to 60,> 80,40 to 60,–,+ (20% to 40% inhibition = +),+ (20% to 40% inhibition = +),20 to 40,–,40 to 60,++++ (80% or greater inhibition = ++++),> 80,++++ (80% or greater inhibition = ++++),–,20 to 40,–,7.74,inhibition at 25 µM (hT2R75): 20 to 40%
"CCc1ccc(CN(Cc2ccccc2)S(=O)(=O)c2ccc(C(=O)O)cc2)cc1 [Example 5-85, 4-(N-benzyl-N-(4-ethylbenzyl)sulfamoyl)benzoic acid]",++ (40% to 60% inhibition = ++),20 to 40,–,> 80,40 to 60,+++ (60% to 80% inhibition = +++),–,40 to 60,20 to 40,20 to 40,+++ (60% to 80% inhibition = +++),> 80,+++ (60% to 80% inhibition = +++),20 to 40,20 to 40,40 to 60,–,inhibition at 25 µM (hT2R75): 20 to 40%; screening result against bitter receptor 65 (hT2R65): +++ (60% to 80% inhibition = +++)
"COc1ccc(CN(Cc2ccc(F)c(OC)c2)S(=O)(=O)c2ccc(C(=O)O)cc2)cc1 [Example 5-50, 4-(N-(4-fluoro-3-methoxybenzyl)-N-(4-methoxybenzyl)sulfamoyl)-benzoic acid]",++ (40% to 60% inhibition = ++),60 to 80,60 to 80,> 80,20 to 40,–,+++ (60% to 80% inhibition = +++),40 to 60,20 to 40,20 to 40,++++ (80% or greater inhibition = ++++),> 80,++++ (80% or greater inhibition = ++++),20 to 40,20 to 40,40 to 60,1.65,screening result against bitter receptor 65 (hT2R65): ++ (40% to 60% inhibition = ++)
